Test results from patent publication US12410141B2, “Anti-cancer spirocyclic-guanidine compounds and uses thereof” (The Johns Hopkins University, priority 2020, dated 2025).

Legend:
[1] = under these conditions; reference (34); cited from earlier work
[2] = molecular target: T1, 42 kDa cellular protein previously identified as RPN13 (Homo sapiens, UniProt Q16186); experiment: Labeling of ES2 cell lysate with biotinylated probes; format: binding; conditions: 45 min at 4° C., streptavidin-HRP
T1 construct: endogenous in cells; host or cells: ES2 cell lysate (clarified, in MPER buffer)
T1 sequence (Q16186 whole entry): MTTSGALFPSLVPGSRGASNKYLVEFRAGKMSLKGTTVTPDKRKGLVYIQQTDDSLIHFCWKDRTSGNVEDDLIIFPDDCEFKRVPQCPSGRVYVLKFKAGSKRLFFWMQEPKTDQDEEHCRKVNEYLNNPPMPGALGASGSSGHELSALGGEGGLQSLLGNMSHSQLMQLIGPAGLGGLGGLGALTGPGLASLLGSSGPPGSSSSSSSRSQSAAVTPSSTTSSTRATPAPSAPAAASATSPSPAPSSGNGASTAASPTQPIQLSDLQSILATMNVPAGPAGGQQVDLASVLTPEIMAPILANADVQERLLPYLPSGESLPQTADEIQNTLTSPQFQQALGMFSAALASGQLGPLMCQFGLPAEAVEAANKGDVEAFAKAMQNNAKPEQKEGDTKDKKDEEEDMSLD
Description: (§1) ES2 cell lysates were incubated with 20 μM RA190B for 45 min at 4° C., and then separated by SDS-PAGE, transferred to a PVDF membrane.
The lysates were then separated by SDS-PAGE, transferred to a PVDF membrane.

42 kDa RPN13 = molecular target: T2, 42 kDa RPN13 (Homo sapiens, UniProt Q16186); experiment: RA190B competitive labeling assay in ES2 cell lysate; format: binding; conditions: ES2 cell lysate pre-incubated 45 min at 4° C. (bortezomib or Up compounds 5 μM), then RA190B 20 μM
T2 construct: endogenous in cells; host or cells: ES2 cell lysate (clarified, in MPER buffer)
T2 sequence (Q16186 whole entry): as above
Description: (§2) Clarified cell lysate (40 ug/sample) in MPER buffer was pretreated with streptavidin-coated magnetic beads for 45 min at 4° C. to deplete non-specific biotinylated proteins in the cell lysate. […] Next, the samples were mixed with Laemmli sample buffer (BioRad) and boiled for 5 min. The proteins were separated using a 4-15% Bio-Rad Mini-PROTEAN SDS-PAGE gel (1 hr at 100 V), and transferred to PVDF membrane overnight at 4° C. (24 V). The membrane was blocked with 5% BSA in PBST for 1 hr at RT and washed for 20 minutes (3× with PBST). Then the membrane was probed with HRP-streptavidin (1:10,000 in PBST) for 1 hr at RT, washed for 30 min (3× with PBST), and developed using HyGLO chemiluminescent detection reagent (Denville) for biotin detection.
as §1

[3] = test system: high molecular weight polyubiquitinated proteins in SKOV3 cells; experiment: Western blot for polyubiquitinated proteins, SKOV3 cells; format: cell-based; conditions: 12 hr, Up284 and RA475 0.5 and 1 μM, RA190 1 μM
Description: Cell lysate (10-20 μg total protein) prepared in MPER (Pierce) from each sample was subjected to SDS-PAGE, transferred to PVDF membranes and analyzed by Western blot using antibodies specific for ubiquitin (P4D1, sc-8017, Santa Cruz), or after stripping antibody for actin (#66009, Protein Tech Group), at the dilutions recommended by the manufacturers, and for secondary antibodies either peroxidase-linked anti-mouse IgG or anti-rabbit IgG (GE Healthcare UK Ltd) were utilized at the recommended dilution. The blots were developed using HyGLO chemiluminescent detection reagent (Denville).
Like RA190, RA475 was designed to be an inhibitor of upstream 19S RP proteasome function. […] Treatment with the same doses of Up284 (0.5 and 1 μM) or 1 μM RA190 provided positive controls, and vehicle alone (DMSO) was used as the negative control. At the end of the incubation, attached cells were lysed using MPER buffer according to the manufacturer's protocol. The lysates were subjected to Western blot analysis using antibody to ubiquitin, and then stripped and re-probed with actin antibody to provide a loading control (FIG. 5).
Proteasome inhibitors cause a rapid accumulation of polyUb proteins that is associated with unresolved UPR stress and the induction of apoptosis. Since RA475 is cytotoxic to ovarian cancer cells (Table 1), and induces such a rapid accumulation of polyUb proteins (FIG. 5), it was examined whether RA475 also triggered apoptosis. SKOV3 cells (FIG. 5A) were treated with Up284 (0.5 μM and 1 μM), 1 μM RA190, RA475 (0.5 μM and 1 μM) or vehicle alone (DMSO) and then cultured for 12 hr. OVCAR3 cells (FIG. 5B) were treated with Up284 (0.5 μM), Bortezomib (Bz, 0.25 μM), Ixazomib (Iz, 0.25 μM), RA475 (0.5 μM and 1 μM) or vehicle alone (DMSO). The attached cells were harvested and their lysates were subjected to Western blot analysis, first probed with antibody to ubiquitin and then to actin.

PACS = experiment: MTT cytotoxicity assay, PACS; format: cell-based; conditions: ovarian (mouse), 72 hr, read-out: IC50, cell killing
Description: (§3) All cell lines were obtained from the American Type Culture Collection (ATCC) and cultured in the specified medium supplemented with 10% fetal bovine serum, 100 IU/mL penicillin, and 100 μg/mL streptomycin at 37° C. in a humidified 5% CO2/95% air incubator. To assess drug cytotoxicity cells were seeded at 2,500 cells/well (10,000 cells/well for MM lines and primary cells) in 100 μL medium in 96-well plate. […]
(§4) It was examined whether the RPN13 inhibitor, RA475, was cytotoxic for cancer cell lines using the MTT assay.

PEA1 = experiment: MTT cytotoxicity assay, PEA1; format: cell-based; conditions: PEA1, ovarian, 72 hr, read-out: IC50, cell killing
Description: as §3, §4

PEA2 = experiment: MTT cytotoxicity assay, PEA2; format: cell-based; conditions: PEA2, ovarian, 72 hr, read-out: IC50, cell killing
Description: as §3, §4

[4] = molecular target: T3, 42 kDa cellular protein, consistent with RPN13 (Homo sapiens, UniProt Q16186); experiment: Up284B competitive labeling assay in SKOV3 or ES2 cell lysates; format: binding; conditions: pre-cleared SKOV3 or ES2 lysates, 45 min at 4° C., then 5 μM Up284B
T3 construct: endogenous in cells; host or cells: SKOV3 or ES2 cell lysates, pre-cleared with streptavidin-coated beads
T3 sequence (Q16186 whole entry): as above
Description: as §2
Briefly SKOV3 or ES2 cell lysates were first pre-cleared with streptavidin-coated beads to deplete endogenous biotinylated proteins. The pre-cleared lysates were then divided into equal aliquots. […] The lysates were then boiled in gel sample buffer, separated by SDS-PAGE, and transferred to a PVDF membrane.

For `N[C@@H](Cc1ccccc1)C(=O)N1C/C(=C\c2ccc([N+](=O)[O-])cc2)C(=O)/C(=C/c2ccc([N+](=O)[O-])cc2)C1` [RA183], the “metabolism under the plasma / liver microsome conditions” value [1] is given as “rapidly metabolized”.

For `O=C(CCCC[C@@H]1SCC2NC(=O)NC21)N[C@@H](Cc1ccccc1)C(=O)N1C/C(=C\c2ccc(Cl)c(Cl)c2)C(=O)/C(=C/c2ccc(Cl)c(Cl)c2)C1` (some centres unmarked) [RA190B], the “binding of biotinylated probe to the 42 kDa cellular protein” value [2] was “bound to the 42 kDa cellular protein”.

For `N[C@@H](Cc1ccccc1)C(=O)N1C/C(=C\c2ccc(Cl)c(Cl)c2)C(=O)/C(=C/c2ccc(Cl)c(Cl)c2)C1` [RA190], the “competition with binding of RA190B to the 42 kDa RPN13” value (“competition with binding of RA190B” below) (42 kDa RPN13) is listed as “competed with the binding of RA190B to the 42 kDa protein”, the “accumulation of polyUb proteins” value [3] is listed as “profound accumulation” and the “metabolism under the plasma / liver microsome conditions” value [1] is listed as “rapidly metabolized”.

`N#Cc1ccc(/C=C2/C(=O)/C(=C/c3ccc(C#N)cc3)C23CCN(C(=N)N)C3)cc1` [RA477] showed an IC50 (PACS) of 405 nM, an IC50 (PEA1) of 331 nM and an IC50 (PEA2) of 312 nM.

With `C=CC(=O)N1CCC2(CC1)/C(=C\c1ccc(C#N)cc1)C(=O)/C2=C/c1ccc(C#N)cc1` [Up285] the “competition with binding of RA190B” value (42 kDa RPN13) was “competed”.

For `CC(C)C[C@H](NC(=O)[C@H](Cc1ccccc1)NC(=O)c1cnccn1)B(O)O` [bortezomib, reference compound], the “competition with binding of RA190B” value (42 kDa RPN13) was “neither the vehicle (DMSO) nor bortezomib (negative controls) competed” and the “competition with binding of Up284B probe to RPN13” value [4] was “not competed”.
